Experiments:
Human NHE3 = molecular target: T1, Human NHE3 (Homo sapiens, UniProt P48764); experiment: Cell-based NHE3 activity under prompt conditions (OK cells, BCECF pH recovery), human NHE3; conditions: prompt conditions; for IC50: read-out: Prompt Human NHE3 pIC50 (converted)
T1 construct: expressed in transfected cells; host or cells: Opossum kidney (OK) cells (ATCC), electroporation
T1 sequence (P48764 26-834): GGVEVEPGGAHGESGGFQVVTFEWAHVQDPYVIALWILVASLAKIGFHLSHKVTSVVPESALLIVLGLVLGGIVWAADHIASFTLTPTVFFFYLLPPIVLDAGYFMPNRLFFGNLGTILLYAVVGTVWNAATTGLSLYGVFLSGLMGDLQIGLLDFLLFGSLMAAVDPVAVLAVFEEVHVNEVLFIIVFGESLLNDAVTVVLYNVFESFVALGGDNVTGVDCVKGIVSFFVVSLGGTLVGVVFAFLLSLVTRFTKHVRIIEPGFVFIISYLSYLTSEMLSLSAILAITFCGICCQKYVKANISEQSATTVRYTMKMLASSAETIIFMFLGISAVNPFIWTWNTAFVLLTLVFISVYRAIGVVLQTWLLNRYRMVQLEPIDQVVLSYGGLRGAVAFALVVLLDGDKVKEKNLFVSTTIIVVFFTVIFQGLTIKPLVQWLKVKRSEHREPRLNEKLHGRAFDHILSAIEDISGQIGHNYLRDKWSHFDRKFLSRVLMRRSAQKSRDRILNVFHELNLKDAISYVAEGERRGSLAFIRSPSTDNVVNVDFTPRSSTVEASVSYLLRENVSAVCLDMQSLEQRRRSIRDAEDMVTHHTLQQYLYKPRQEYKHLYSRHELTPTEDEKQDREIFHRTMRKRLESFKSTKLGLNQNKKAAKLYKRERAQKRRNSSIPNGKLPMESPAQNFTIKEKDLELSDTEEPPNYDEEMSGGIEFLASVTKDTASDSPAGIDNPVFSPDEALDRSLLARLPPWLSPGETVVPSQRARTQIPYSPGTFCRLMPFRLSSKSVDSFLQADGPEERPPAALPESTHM
Outline: (§1)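 OK cells electroporated with rat or human NHE3 gene, loaded 30 min at room temperature with 5 μM BCECF-AM in NH4Cl-HEPES pH 7.4.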

Rat NHE3 = molecular target: T2, Rat NHE3 (Rattus norvegicus, UniProt P26433); experiment: Cell-based NHE3 activity under prompt conditions (OK cells, BCECF pH recovery), rat NHE3; conditions: prompt conditions; for IC50: read-out: Prompt Rat NHE3 pIC50 (converted)
T2 construct: expressed in transfected cells; host or cells: Opossum kidney (OK) cells (ATCC), electroporation
T2 sequence (P26433 29-831): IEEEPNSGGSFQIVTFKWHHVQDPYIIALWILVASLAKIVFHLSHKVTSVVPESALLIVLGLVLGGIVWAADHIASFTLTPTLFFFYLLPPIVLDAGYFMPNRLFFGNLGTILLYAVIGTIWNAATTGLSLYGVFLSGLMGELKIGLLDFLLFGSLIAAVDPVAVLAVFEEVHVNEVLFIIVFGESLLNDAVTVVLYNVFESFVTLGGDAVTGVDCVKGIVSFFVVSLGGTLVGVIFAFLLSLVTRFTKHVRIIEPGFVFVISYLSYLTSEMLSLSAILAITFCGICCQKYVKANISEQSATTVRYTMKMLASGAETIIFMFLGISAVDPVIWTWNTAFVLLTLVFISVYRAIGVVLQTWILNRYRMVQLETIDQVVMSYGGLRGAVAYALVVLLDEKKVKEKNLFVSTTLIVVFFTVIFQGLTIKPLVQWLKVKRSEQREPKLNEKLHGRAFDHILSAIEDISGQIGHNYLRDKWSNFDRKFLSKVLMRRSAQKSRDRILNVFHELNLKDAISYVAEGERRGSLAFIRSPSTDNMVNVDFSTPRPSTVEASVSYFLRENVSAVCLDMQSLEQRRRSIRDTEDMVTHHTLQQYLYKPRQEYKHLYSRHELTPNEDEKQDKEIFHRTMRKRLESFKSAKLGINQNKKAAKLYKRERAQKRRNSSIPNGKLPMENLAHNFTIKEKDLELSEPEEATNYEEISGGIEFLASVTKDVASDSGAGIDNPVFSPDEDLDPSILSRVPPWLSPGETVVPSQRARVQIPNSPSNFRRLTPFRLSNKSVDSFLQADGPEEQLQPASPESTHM
Outline: as §1

[1] = tested on: absorption of sodium from the intestinal lumen; experiment: Fecal form score (FFS) 16 h after oral dose in rats; type: in vivo, rat; conditions: oral gavage, 16 h post-dose, scale 1-5
Outline: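 Eight-week-old Sprague-Dawley rats (n=6) dosed by oral gavage with compound or water vehicle between 4 and 5 PM, then housed in metabolic cages with food and water ad libitum. At 16 h, fecal form scored 1 (normal pellet) to 5 (liquid streams) by two observers; group mean reported.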

[2] = tested on: absorption of sodium from the intestinal lumen; experiment: Inhibition of intestinal sodium absorption: urinary sodium (uNa) 16 h after single oral dose in rats; type: in vivo, rat; conditions: oral gavage, 16 h post-dose
Outline: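 Eight-week-old Sprague-Dawley rats (n=6) given single oral gavage of compound or water vehicle in the late afternoon, then kept in metabolic cages with chow and water ad libitum. Urine collected over 16 h; sodium quantified by ion chromatography and expressed as % of vehicle mean, compared by one-way ANOVA with Dunnett's test.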

[3] = tested on: phosphorus and calcium levels in the urine of rats; experiment: Urinary excretion of phosphate and calcium in rats (16 h overnight urine); type: in vivo, rat; conditions: rats, oral gavage, 16 h post-dose

SMILES | Prompt Human NHE3 pIC50 (Human NHE3) | Prompt Rat NHE3 pIC50 (Rat NHE3) | Fecal Form Score average ([1]; dose 3 mg/kg) | Urine Na % of control ([2]; dose 3 mg/kg) | Urine P % of control ([3]; dose 3 mg/kg) | Fecal Form Score average ([1]; dose 10 mg/kg) | Urine Na % of control ([2]; dose 10 mg/kg) | Urine P % of control ([3]; dose 10 mg/kg) | IC50 (Rat NHE3) | Fecal Form Score average ([1]; dose 1 mg/kg) | Urine Na % of control ([2]; dose 1 mg/kg) | Urine P % of control ([3]; dose 1 mg/kg) | IC50 (Human NHE3)
CN(CC(=O)O)CC(=O)NC(CCC(=O)NCCOCCOCCNS(=O)(=O)c1cccc([C@@H]2CN(C)Cc3c(Cl)cc(Cl)cc32)c1)(CCC(=O)NCCOCCOCCNS(=O)(=O)c1cccc([C@@H]2CN(C)Cc3c(Cl)cc(Cl)cc32)c1)CCC(=O)NCCOCCOCCNS(=O)(=O)c1cccc([C@@H]2CN(C)Cc3c(Cl)cc(Cl)cc32)c1 [compound 138] | 7.30 | 7.30 | 2 | 37% | 78% |  |  |  |  |  |  |  | 
O=C(NCCOCCOCCOCCNS(=O)(=O)c1ccc(O[C@H]2c3ccccc3C[C@@H]2N2CCCCC2)cc1)c1cccc(C(=O)NCCOCCOCCOCCNS(=O)(=O)c2ccc(O[C@H]3c4ccccc4C[C@@H]3N3CCCCC3)cc2)c1 [compound 118] | 8.10 | 7.40 |  |  |  | 1 | 83% | 131% |  |  |  |  | 
CN1Cc2c(Cl)cc(Cl)cc2C(c2cccc(S(=O)(=O)NCCOCCOCCOCCNC(=O)CN(CCN(CCN(CC(=O)NCCOCCOCCOCCNS(=O)(=O)c3cccc([C@@H]4CN(C)Cc5c(Cl)cc(Cl)cc54)c3)CC(=O)NCCOCCOCCOCCNS(=O)(=O)c3cccc([C@@H]4CN(C)Cc5c(Cl)cc(Cl)cc54)c3)CC(=O)NCCOCCOCCOCCNS(=O)(=O)c3cccc([C@@H]4CN(C)Cc5c(Cl)cc(Cl)cc54)c3)CC(=O)NCCOCCOCCOCCNS(=O)(=O)c3cccc([C@@H]4CN(C)Cc5c(Cl)cc(Cl)cc54)c3)c2)C1 (stereo in doubt) [compound 75] | 6.90 | 6.30 |  |  |  | 1 | 81% | 55% |  |  |  |  | 
CN1Cc2c(Cl)cc(Cl)cc2[C@H](c2cccc(S(=O)(=O)NCCOCCOCCNC(=O)NCCN(CCNC(=O)NCCOCCOCCNS(=O)(=O)c3cccc([C@@H]4CN(C)Cc5c(Cl)cc(Cl)cc54)c3)C(=O)CCCCCCCCCCC(=O)N(CCNC(=O)NCCOCCOCCNS(=O)(=O)c3cccc([C@@H]4CN(C)Cc5c(Cl)cc(Cl)cc54)c3)CCNC(=O)NCCOCCOCCNS(=O)(=O)c3cccc([C@@H]4CN(C)Cc5c(Cl)cc(Cl)cc54)c3)c2)C1 [compound 83] | <5.00 | <5.00 |  |  |  | 1 | 82% | 59% |  |  |  |  | 
CN1Cc2c(Cl)cc(Cl)cc2[C@H](c2cccc(S(=O)(=O)NCCOCCOCCNC(=O)CN(CCOCCOCCN(CC(=O)NCCOCCOCCNS(=O)(=O)c3cccc([C@@H]4CN(C)Cc5c(Cl)cc(Cl)cc54)c3)CC(=O)NCCOCCOCCNS(=O)(=O)c3cccc([C@@H]4CN(C)Cc5c(Cl)cc(Cl)cc54)c3)CC(=O)NCCOCCOCCNS(=O)(=O)c3cccc([C@@H]4CN(C)Cc5c(Cl)cc(Cl)cc54)c3)c2)C1 [compound 85] | 6.10 | 5.80 |  |  |  | 1 | 92% | 85% |  |  |  |  | 
NC(N)=Nc1nc(-c2cccc(N3CCN(CCOCCOCCNC(=O)NCCOCCOCCNC(=O)NCCCCNC(=O)NCCOCCOCCNC(=O)NCCOCCOCCN4CCN(c5cccc(-c6nc(N=C(N)N)nc7ccc(Cl)cc67)c5)CC4)CC3)c2)c2cc(Cl)ccc2n1 [compound 28] | 8.10 | 7.60 |  |  |  | 1 | 83% | 129% |  |  |  |  | 
N=C(N)Nc1nc(-c2cccc(S(=O)(=O)NCCOCCOCCOCCN)c2)c2cc(Cl)ccc2n1 [compound 12] | 7.00 | 6.10 |  |  |  | 1 | 82% | 94% |  |  |  |  | 
CN1Cc2c(Cl)cc(Cl)cc2[C@H](c2cccc(S(=O)(=O)NCCOCCOCCNC(=O)NCCCC(CCCNC(=O)NCCOCCOCCNS(=O)(=O)c3cccc([C@@H]4CN(C)Cc5c(Cl)cc(Cl)cc54)c3)(CCCNC(=O)NCCOCCOCCNS(=O)(=O)c3cccc([C@@H]4CN(C)Cc5c(Cl)cc(Cl)cc54)c3)NC(=O)CCC(=O)O)c2)C1 [compound 155] | 7.90 | 7.70 | 2 | 40% | 44% |  |  |  |  |  |  |  | 
CN1Cc2c(Cl)cc(Cl)cc2C(c2cccc(NC(=O)[C@H](O)[C@@H](O)[C@H](O)[C@H](O)CO)c2)C1 (stereo in doubt) [compound 3] | 7.60 |  |  |  |  |  |  |  | 39.8 nM | 1 | 41% | 57% | 
O=C(NCCCCNC(=O)NCCOCCOCCNS(=O)(=O)c1ccc(O[C@H]2c3ccccc3C[C@@H]2N2CCCCC2)cc1)NCCOCCOCCNS(=O)(=O)c1ccc(O[C@H]2c3ccccc3C[C@@H]2N2CCCCC2)cc1 (racemic) [compound 47] |  |  |  |  |  | 1 | 73% | 51% | 50.1 nM |  |  |  | 15.8 nM
CN1Cc2c(Cl)cc(Cl)cc2[C@H](c2cccc(S(=O)(=O)NCCOCCOCCNC(=O)CCC(CCC(=O)NCCOCCOCCNS(=O)(=O)c3cccc([C@@H]4CN(C)Cc5c(Cl)cc(Cl)cc54)c3)(CCC(=O)NCCOCCOCCNS(=O)(=O)c3cccc([C@@H]4CN(C)Cc5c(Cl)cc(Cl)cc54)c3)NC(=O)Cn3ccnc3)c2)C1 [compound 154] | 6.80 | 6.80 | 1 | 112% | 65% |  |  |  |  |  |  |  | 
NCCOCCOCCN1CCN(c2ccc(-c3nc(N=C(N)N)nc4ccc(Cl)cc34)cc2)CC1 [compound 19] | 7.40 | 7.00 |  |  |  | 1 | 72% | 119% |  |  |  |  | 
CN1Cc2c(Cl)cc(Cl)cc2[C@H](c2cccc(S(=O)(=O)NCCOCCOCCNC(=O)CCC(CCC(=O)NCCOCCOCCNS(=O)(=O)c3cccc([C@@H]4CN(C)Cc5c(Cl)cc(Cl)cc54)c3)(CCC(=O)NCCOCCOCCNS(=O)(=O)c3cccc([C@@H]4CN(C)Cc5c(Cl)cc(Cl)cc54)c3)NC(N)=O)c2)C1 [compound 133] | 7.30 | 6.50 | 2 | 23% | 67% |  |  |  |  |  |  |  | 
CN1Cc2c(Cl)cc(Cl)cc2[C@H](c2cccc(S(=O)(=O)NCCOCCOCCNC(=O)CCC(CCC(=O)NCCOCCOCCNS(=O)(=O)c3cccc([C@@H]4CN(C)Cc5c(Cl)cc(Cl)cc54)c3)(CCC(=O)NCCOCCOCCNS(=O)(=O)c3cccc([C@@H]4CN(C)Cc5c(Cl)cc(Cl)cc54)c3)NCc3ccc(-c4ccc(Cl)cc4)cc3)c2)C1 [compound 113] | <5.00 | <5.00 |  |  |  | 1 | 64% | 61% |  |  |  |  | 
CC1Cc2c(Cl)cc(Cl)cc2[C@H](c2cccc(S(=O)(=O)NCCOCCOCCNC(=O)CCC(CCC(=O)NCCOCCOCCNS(=O)(=O)c3cccc([C@@H]4CN(C)Cc5c(Cl)cc(Cl)cc54)c3)(CCC(=O)NCCOCCOCCNS(=O)(=O)c3cccc([C@@H]4CN(C)Cc5c(Cl)cc(Cl)cc54)c3)NC(=O)N[C@@H](CC(=O)O)C(=O)O)c2)C1 (stereo partly drawn) [compound 145] |  |  | 3 | 41% | 51% |  |  |  | 25.1 nM |  |  |  | 20 nM

Reference: US20240366589A1, “NHE3-BINDING COMPOUNDS AND METHODS FOR INHIBITING PHOSPHATE TRANSPORT” (Ardelyx, Inc., priority 2013, published 2024)
